Values quoted from earlier work as cited in patent US11297852B2, “Method for treatment or prevention of gill disease” (NUTRECO IP ASSETS B.V., priority 2015, dated 2022).
Read-outs that look alike come from different tables or passages of the source.

Tests used:
AGD [1] = conditions: in feed at 25 mg/kg
AGD [2] = conditions: oral administration two weeks prior to challenge
[3] = Atlantic salmon
amoebae = conditions: in vitro bath treatment at 10 mg/l, used individually
P. perurans = conditions: in feed
AGD [4] = conditions: oral supplementation
[5] = 7 days after P. perurans challenge

## Oc1c(Cl)cc(Cl)cc1Sc1cc(Cl)cc(Cl)c1O [Bithionol]
AGD [1]
  AGD associated lesions: delay and reduction in intensity

## CCOC(=O)[C@@H](N)CS [LCEE, L-cysteine ethyl ester]
AGD [2]
  progression of AGD associated gill pathology: significantly delayed the progression
[3]
  mucus viscosity: reduce mucus viscosity

## CC[C@@H](C(=O)[C@@H](C)[C@@H](O)[C@H](C)CCc1ccc(C)c(O)c1C(=O)O)[C@H]1O[C@](CC)([C@H]2CC[C@](O)(CC)[C@H](C)O2)C[C@@H]1C [Lasalocid acid]
amoebae
  amoebae numbers: significantly reduced amoebae numbers
P. perurans; 14 and 21 days after challenge
  percent of lamella with lesions compared to control fed fish: no difference
P. perurans; [5]
  percent of lamella with lesions compared to control fed fish: reduced the percent of lamella with lesions

## CO[C@@H]1[C@@H](OC)[C@H](C)[C@@](O)(CC(=O)O)O[C@H]1[C@H](C)[C@H]1O[C@@]2(CC[C@@](C)([C@H]3CC[C@@](C)([C@@H]4O[C@@H]([C@H]5O[C@](C)(O)[C@H](C)C[C@@H]5C)C[C@@H]4O[C@@H]4C[C@H](OC)[C@@H](OC)[C@H](C)O4)O3)O2)C[C@H](O)[C@H]1C [Maduramycin]
amoebae
  amoebae numbers: significantly reduced amoebae numbers
P. perurans; 14 and 21 days after challenge
  percent of lamella with lesions compared to control fed fish: no difference
P. perurans; [5]
  percent of lamella with lesions compared to control fed fish: reduced the percent of lamella with lesions

## CC[C@@H](C(=O)[C@@H](C)[C@@H](O)[C@H](C)[C@@H]1O[C@@H]([C@@H](CC)C(=O)O)CC[C@@H]1C)[C@H]1O[C@]2(C=C[C@@H](O)[C@]3(CC[C@@](C)([C@H]4CC[C@](O)(CC)[C@H](C)O4)O3)O2)[C@H](C)C[C@@H]1C [Salinomycin]
amoebae
  amoebae numbers: significantly reduced amoebae numbers
P. perurans; 14 and 21 days after challenge
  percent of lamella with lesions compared to control fed fish: no difference
P. perurans; [5]
  percent of lamella with lesions compared to control fed fish: reduced the percent of lamella with lesions

## c1ccc([C@H]2CN3CCSC3=N2)cc1 [levamisole]
AGD [4]
  impact on mortality levels: no significant impact

## glucans
AGD [4]
  impact on mortality levels: no significant impact
